Here are results for 1 molecule from PMC10149367, “The ferroptosis inducing compounds RSL3 and ML162 are not direct inhibitors of GPX4 but of TXNRD1” (Redox Biology, 2023).

Data set [1] relates to malondialdehyde (MDA) and Ptgs2 mRNA levels. Set-up: method as in PMID 32732975. The following applies: C57BL/6 mice; rescued with Fer-1; cited from earlier work.
In data set [2] the target is T1, TXNRD1 (Homo sapiens, UniProt Q16881).
T1 construct: RX1 probe that specifically reports upon TXNRD1 enzymatic activity in live cells; endogenous in cells; host or cells: A549
T1 sequence (Q16881 151-649 limits assumed): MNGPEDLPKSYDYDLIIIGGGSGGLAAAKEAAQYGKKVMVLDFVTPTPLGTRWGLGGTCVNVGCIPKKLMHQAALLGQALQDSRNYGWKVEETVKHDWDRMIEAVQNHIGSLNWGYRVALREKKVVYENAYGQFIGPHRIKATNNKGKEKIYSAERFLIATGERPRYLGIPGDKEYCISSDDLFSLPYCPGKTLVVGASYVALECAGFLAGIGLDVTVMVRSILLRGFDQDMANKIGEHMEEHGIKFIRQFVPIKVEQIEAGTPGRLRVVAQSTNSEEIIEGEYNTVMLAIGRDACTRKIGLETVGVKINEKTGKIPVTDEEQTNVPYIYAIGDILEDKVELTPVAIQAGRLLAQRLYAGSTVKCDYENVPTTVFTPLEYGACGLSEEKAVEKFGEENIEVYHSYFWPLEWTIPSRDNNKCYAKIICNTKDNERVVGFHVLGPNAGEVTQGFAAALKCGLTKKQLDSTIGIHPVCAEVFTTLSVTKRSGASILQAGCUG
The data set can be described thus: Cellular TXNRD1 assay with RX1 probe in A549 cells. The class given is cell-based. Particulars: A549, 4 h incubation; RSL3 and ML162 at 1 μM or higher.
Description: Cellular TXNRD1 assay—20,000 or 10,000 A549 cells (for 4 h or 12 h and 24 h compound incubation respectively) were seeded in 96-well plates (microplates, 96 well, F-bottom, black, clear bottom, ViewPlateTM-96 F TC, PerkinElmer), in a total volume of 100 μL full DMEM (supplemented with 10% FBS and 100 nM Na2SeO3). […] The cells were subsequently incubated for the respective mentioned time, washed once with full DMEM and fresh, full DMEM, containing 75 μM RX1 and 0.75% DMSO, was added and the first fluorescent measurement was conducted immediately (timepoint = 0) using a Tecan Infinite M200 plate reader (ex/em 355/520). To follow the kinetic activation of RX1, a fluorescent measurement was done every hour for 6 h. Between measurements, cells were stored at 37 °C and 5% CO2. As a control, cells treated with compounds, but not with RX1, just the respective DMSO content, were used for background fluorescent. To determine how the cells were viable throughout the RX1 assay, the control cells were used for a viability measurement, using CellTiter-Glo® Luminescent Cell Viability Assay, after the final fluorescent measurement. For final data analysis, raw data was processed using Microsoft Excel and GraphPad Prism. In brief, the slope of the activated RX1 fluorescence increase was in each case calculated and normalized, using the viability measurement of the control cells.

Data set [3] concerns A549 cells. The data set can be described thus: Cytotoxicity assay, A549 cells. The data set is classed as cell-based, human. The procedure: Cell culture—H1975 and A549 cells were cultured in RPMI-1640 medium (HyClone) with Earle's salts supplemented and penicillin/streptomycin (100 μg/ml), while HT1080 cells were cultured in MEM medium for Fig. 2 experiments. For all other cellular experiments, A549 cells were cultured in DMEM 4.5 g/L glucose medium (Gibco), and H1975 cells in RPMI-1640 ATCC Modification (Gibco). Cell cultures were maintained at 37 °C in 5% CO2 in a medium containing 10% fetal bovine serum (FBS) (GE Healthcare, A15-102 for Fig. 2 experiments and Sigma, F7524 for all others). Experiments were performed with or without supplementation with 100 nM sodium selenite as described.
Cytotoxicity assays— Cells were seeded in a 96-well plate at the density of 3 × 10^3 per well and allowed to adhere overnight. After which, cells were treated with various concentrations of compound for the indicated times, whereupon cell viability was determined using Cell Quanti-Blue™ Cell Viability Assay Kits (Nordic Diagnostica, CQBL-10K). Briefly, QUANTI-Blue Reagent (10 μL) was added to each well, incubated at 37 °C in 5% CO2 for 3 h, and then the plates were measured at 540nm/600 nm (Ex/Em) using the Tecan Microplate Reader (Morrisville NC, USA).

The target in data set [4] is T2, GPX4 (Homo sapiens, UniProt P36969).
T2 construct: We thus performed immunoblot analyses for GPX4 in A549 cells; endogenous in cells; host or cells: A549
T2 sequence (P36969 1-197): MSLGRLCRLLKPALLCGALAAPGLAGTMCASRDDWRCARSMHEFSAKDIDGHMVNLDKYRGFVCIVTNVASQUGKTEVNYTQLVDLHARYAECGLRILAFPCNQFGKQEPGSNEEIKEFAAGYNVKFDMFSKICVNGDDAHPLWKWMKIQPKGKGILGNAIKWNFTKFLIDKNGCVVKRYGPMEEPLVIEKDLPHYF
The data set can be described thus: GPX4 immunoblot of treated A549 cells. The class given is cell-based. Particulars: A549, 3 μM, 24 h. The method, then:
Western blots—A549 and H1975 cells cultured for at least 72 h in the presence of 100 nM Na2SeO3 (Sigma) were seeded in 90 mm dishes (VWR) at 1 × 10^6 cells per dish for 18 h prior to main treatments. Four hours after seeding dishes, cells were pretreated with 2 μM Fer-1 for 14 h prior to adding RSL3, when indicated. After 14 h, main treatments with TRi-1, TRi-2, RSL3, ML162, ML210 or 0.03% v/v DMSO in doses indicated in each figure were added for 6 or 24 h. Total DMSO content was 0.05%. Cells were then scraped, washed in PBS, and suspended in 150–200 μL lysis buffer containing 50 mM Tris-HCl (pH 7.5), 2 mM EDTA, 0.15 M NaCl, 1% Triton X-100, and cOmplete protease inhibitor cocktail (Roche). Supernatants were collected after 30 s of sonication, and 30 min centrifugation at 17000×g, and protein concentration was measured using Pierce bicinchoninic acid (BCA) protein assay kit (Thermo Fischer Scientific). […] Chemiluminescent signal was detected using anti-rabbit and anti-mouse HRP-IgG secondary antibodies (Southern Biotech, 4030–05, LOT A2718-MM00 and 1030–05, LOT L3919-XE81B respectively) and ECL detection reagent (Cytiva Amersham). Protein quantification based on band densitometry was performed in Quantity One and Image Lab (BioRad).

The target in data set [5] is T3, TXNRD1 (Homo sapiens, UniProt Q16881).
T3 construct: made in house
T3 sequence (Q16881 1-499 isoform Q16881-5): T1 sequence (Q16881 151-649 limits assumed)
The data set can be described thus: nano differential scanning fluorimetry, TXNRD1. The data set is classed as binding. The following applies: 100 μM compound. The method, then:
Nano differential scanning fluorimetry—Real-time monitoring of fluorescence emission at 330 nm and 350 nm (excitation wavelength: 280 nm) and backscattering absorbance of GPX4 and TXNRD1 samples in the presence of compound was performed using a NanoTemper Prometheus NT.48 instrument. […] Standard capillaries were used, and temperature was increased from 25 to 95 °C with a ramp rate of 4.0 °C/min. Three biological replicates were carried out for each condition, and their means and standard deviations are depicted.

For data set [6], the system named is A549 cells. The data set can be described thus: A549 viability in cellular TXNRD1 (RX1) experiments. Particulars: A549, 4 h, Extended Data Fig. 3A.
Description: Cellular TXNRD1 assay—20,000 or 10,000 A549 cells (for 4 h or 12 h and 24 h compound incubation respectively) were seeded in 96-well plates (microplates, 96 well, F-bottom, black, clear bottom, ViewPlateTM-96 F TC, PerkinElmer), in a total volume of 100 μL full DMEM (supplemented with 10% FBS and 100 nM Na2SeO3). The cells were incubated for 16 h at 37 °C and 5% CO2, followed by media change and addition of indicated compounds at respective concentrations (0.1 μM–20 μM), including 0.6% DMSO. The cells were subsequently incubated for the respective mentioned time, washed once with full DMEM and fresh, full DMEM, containing 75 μM RX1 and 0.75% DMSO, was added and the first fluorescent measurement was conducted immediately (timepoint = 0) using a Tecan Infinite M200 plate reader (ex/em 355/520). To follow the kinetic activation of RX1, a fluorescent measurement was done every hour for 6 h. Between measurements, cells were stored at 37 °C and 5% CO2. As a control, cells treated with compounds, but not with RX1, just the respective DMSO content, were used for background fluorescent. To determine how the cells were viable throughout the RX1 assay, the control cells were used for a viability measurement, using CellTiter-Glo® Luminescent Cell Viability Assay, after the final fluorescent measurement. For final data analysis, raw data was processed using Microsoft Excel and GraphPad Prism. In brief, the slope of the activated RX1 fluorescence increase was in each case calculated and normalized, using the viability measurement of the control cells.
Extended Data Figure 3: A549 cytotoxicity in cellular TXNRD1 experiments following final
A) Cell viability following 4-hour incubation with
compounds; B) Viability following 12-hour incubation with compounds; C) Viability
following 24 -hour incubation with compounds. The cell viability in was in each case measured
using the Cell Quanti-BlueTM Cell Viability Assay Kit and the data are presented as mean ±
s.d. of n = 3 biological replicates, each containing n = 3 technical replicates.
Data set [7] deals with GPX4. Set-up: method as in PMID 34788728. Particulars: cited from earlier work.
Details of data set [8]: method as in PMID 29444979. Particulars: given at high doses to mice; cited from earlier work.
In data set [9] the target is T3, TXNRD1. The data set can be described thus: TXNRD1 activity assay, pure enzyme (Fig. 1A). The data set is classed as biochemical. The method, then: Recombinant human proteins—Recombinant human selenoprotein GPX and TXNRD isoenzymes as well as recombinant human GR were cloned, expressed, and purified as described previously [[26], [27], [28]].
TXNRD1 selenite and DTNB assays were run as previously described [[26], [27], [28]]. Dose-response curves and IC50s were generated using Excel and GraphPad Prism. Briefly, initial slopes of NADPH consumption were normalized to DMSO controls and IC50s were calculated using log(inhibitor) vs. response—Variable slope (four parameters).

Each structure is given as a SMILES string.

For `COc1ccc([N+](=O)[O-])c(S(=O)(=O)c2ccc(Cl)cc2)n1` [TRi-1], in data set [1], the “MDA and Ptgs2 levels” value is “increase MDA and Ptgs2 levels”. For the same molecule, at TXNRD1 [2], the “Effect on cellular TXNRD1 activity (RX1) at 4 h” value was “effectively inhibit cellular TXNRD1 activity”. In the data set on A549 cells [3] (24 h, media not supplemented with selenium), the IC50 is about 20 µM. In addition, the “Effect of ferrostatin-1 or MitoTEMPO co-treatment on cytotoxicity” value in the data set on A549 cells [3] (A549, 24 h, no selenium supplementation) is “co-treatment with neither ferrostatin-1 nor MitoTEMPO had any effect”. Also, the Cell viability result with A549 cells [3] (A549, 24 h, under all tested conditions (with/without Se, blockers)) is on record as “about 40%”. In addition, the “Difference in response profiles between cell lines” value in the data set on A549 cells [3] (A549, H1975 and HT1080, 24 h) was “no stark difference in response profiles”. In addition, the “GPX4 expression levels compared to DMSO controls (immunoblot)” value on GPX4 [4] is “no obvious changes in its expression levels”. For the same molecule, the “Thermal stabilization of TXNRD1” value at TXNRD1 [5] is on record as “displaying thermal stabilization of the enzyme”. Also, in the data set on A549 cells [6], the “Effect on cell viability at 4 h” value is given as “no overt effects on viability”. Besides, the “Effect on GPX4 thermostability” value in the data set on GPX4 [7] was “no major effect”. In [8], the “Antitumoral effect in mice” value was “antitumoral properties” and the Toxicity to mice entry was “lack overt toxicity”. The “Specificity among GPX1, GPX4, GR and TXNRD1” value on TXNRD1 [9] (pure enzyme systems, Fig. 1A lower panels) was “specific inhibitors of TXNRD1”. Also, at TXNRD1 [9] (recombinant TXNRD1, Fig. 1A assay conditions, read-out: IC50 TXNRD1 inhibition), the IC50 is about 0.5 µM.
